Test results from patent US20080255169A1 (priority 2004, published 2008).
Like-named read-outs stand apart in the source and are kept apart here.

Target: α2β1 integrin (Homo sapiens, UniProt P05556+P17301)
Test: Cell adhesion assay
Type: cell-based
Details: for Emax: read-out: Emax in cell adhesion assay
[1] = read-out: EC50 in cell adhesion assay

α2β1 integrin, sequence (P17301 30-1181): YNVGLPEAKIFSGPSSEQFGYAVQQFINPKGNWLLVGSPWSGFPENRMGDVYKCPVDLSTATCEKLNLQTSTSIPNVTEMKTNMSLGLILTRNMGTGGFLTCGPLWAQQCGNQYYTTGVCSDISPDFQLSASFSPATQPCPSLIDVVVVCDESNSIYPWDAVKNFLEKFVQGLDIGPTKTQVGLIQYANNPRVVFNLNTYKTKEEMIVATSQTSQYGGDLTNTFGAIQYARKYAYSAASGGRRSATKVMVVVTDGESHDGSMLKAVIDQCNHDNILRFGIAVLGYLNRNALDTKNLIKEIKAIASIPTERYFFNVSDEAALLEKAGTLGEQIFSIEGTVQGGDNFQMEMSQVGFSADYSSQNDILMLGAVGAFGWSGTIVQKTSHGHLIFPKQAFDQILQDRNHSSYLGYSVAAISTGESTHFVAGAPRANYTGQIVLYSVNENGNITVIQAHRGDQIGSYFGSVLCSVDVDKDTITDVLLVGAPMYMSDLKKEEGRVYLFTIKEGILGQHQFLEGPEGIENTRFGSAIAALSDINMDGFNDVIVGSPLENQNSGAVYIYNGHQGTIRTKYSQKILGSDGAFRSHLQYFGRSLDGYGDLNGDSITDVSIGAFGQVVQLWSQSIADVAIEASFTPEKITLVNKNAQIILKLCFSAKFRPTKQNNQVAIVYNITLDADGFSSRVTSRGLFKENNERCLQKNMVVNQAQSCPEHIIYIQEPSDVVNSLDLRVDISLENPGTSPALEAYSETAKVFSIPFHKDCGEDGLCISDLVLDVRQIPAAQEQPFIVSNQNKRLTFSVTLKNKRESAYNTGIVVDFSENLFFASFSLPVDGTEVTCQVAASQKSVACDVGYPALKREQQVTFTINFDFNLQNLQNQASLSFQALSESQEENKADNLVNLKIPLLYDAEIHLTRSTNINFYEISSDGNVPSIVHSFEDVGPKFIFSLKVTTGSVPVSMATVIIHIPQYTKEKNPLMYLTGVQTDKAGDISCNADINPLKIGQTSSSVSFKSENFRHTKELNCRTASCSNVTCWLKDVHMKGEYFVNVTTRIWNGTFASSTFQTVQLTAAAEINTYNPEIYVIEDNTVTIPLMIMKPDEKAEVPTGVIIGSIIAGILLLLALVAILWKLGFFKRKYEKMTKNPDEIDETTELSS
α2β1 integrin, sequence (P05556 21-798 partner): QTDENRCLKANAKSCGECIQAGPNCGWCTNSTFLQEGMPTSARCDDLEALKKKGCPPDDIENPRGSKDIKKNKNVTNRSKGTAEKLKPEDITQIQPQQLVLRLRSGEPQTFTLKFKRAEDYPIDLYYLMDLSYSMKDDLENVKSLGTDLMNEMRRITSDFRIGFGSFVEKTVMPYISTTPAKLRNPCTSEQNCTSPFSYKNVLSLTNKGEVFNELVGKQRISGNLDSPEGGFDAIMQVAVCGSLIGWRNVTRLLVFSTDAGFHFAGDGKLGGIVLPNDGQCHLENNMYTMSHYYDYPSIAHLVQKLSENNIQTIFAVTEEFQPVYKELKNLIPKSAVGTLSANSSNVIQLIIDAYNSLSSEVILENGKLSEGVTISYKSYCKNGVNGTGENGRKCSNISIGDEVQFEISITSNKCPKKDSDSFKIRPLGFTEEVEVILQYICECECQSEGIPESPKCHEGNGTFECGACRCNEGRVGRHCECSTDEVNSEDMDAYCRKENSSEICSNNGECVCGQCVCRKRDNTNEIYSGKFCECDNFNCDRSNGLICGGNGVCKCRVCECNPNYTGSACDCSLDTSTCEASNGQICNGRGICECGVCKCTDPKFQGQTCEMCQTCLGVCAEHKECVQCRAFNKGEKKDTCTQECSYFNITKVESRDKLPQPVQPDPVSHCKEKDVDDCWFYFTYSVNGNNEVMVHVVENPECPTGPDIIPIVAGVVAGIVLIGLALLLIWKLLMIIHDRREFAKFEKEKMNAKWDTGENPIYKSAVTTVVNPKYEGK

Row | Structure (SMILES) | Emax (concentration not given) [%] | EC50 [1] [µM] | also measured
1 | COc1cc(OC)nc(-c2ccc(NS(=O)(=O)c3cccc(-c4ccc(F)cc4)c3)cc2)n1 [Compound 235] | 85 | 20 | –
2 | O=S(=O)(Nc1ccc2ncsc2c1)c1cccc(Br)c1 [Compound 139, N-benzolthiazol-6-yl-3-bromo-benzenesulfonamide] | 75 | 46 | –
3 | O=S(=O)(Nc1ccc(-n2cccn2)cc1)c1cccc(-c2ccc(F)cc2)c1 [Compound 297] | 80 | 26 | –
4 | Cc1ccc(C)n1-c1ccc(NS(=O)(=O)c2ccc(Cl)cc2Cl)cc1 [Compound 213] | – | 25 | Emax at 50 µM: 71%
5 | COc1cc(OC)nc(-c2ccc(NS(=O)(=O)c3ccc(-c4cnco4)s3)cc2)n1 [Compound 286, 5-oxazol-5-yl-thiophene-2-sulfonic acid [4-(4,6-dimethoxypyrimidin-2-yl)-phenyl]-amide] | 72 | 37 | –
6 | Cc1cc2c(n1-c1ccc(NS(=O)(=O)c3ccc(-c4cnco4)s3)cc1)CC(C)(C)CC2=O [Compound 258] | 66 | 40 | –
7 | Cc1cc2cc(N(C)S(=O)(=O)c3cccc(Br)c3)ccc2[nH]1 [Compound 209] | – | 35 | Emax at 50 µM: 64%
8 | O=S(=O)(Nc1ccc(Nc2nc(Cl)nc(Cl)c2Cl)cc1)c1ccc(Cl)cc1 [Compound 170] | – | 24 | Emax at 40 µM (at 40 μM): 85%
9 | Cc1cc2cc(NS(=O)(=O)c3ccc4oc(=O)ccc4c3)ccc2[nH]1 [Compound 234] | 85 | 35 | –
10 | O=S(=O)(Nc1ccc(-n2cccc2)cc1)c1ccc(Cl)cc1Cl [Compound 163, 2,4-dichloro-N-(4-pyrrol-1-yl-phenyl)-benzenesulfonamide] | – | 32 | Emax at 50 µM: 66%
11 | O=S(=O)(Nc1ccc2[nH]ccc2c1)c1ccc(Cl)cc1Cl [Compound 134, 2,4-dichloro-N-(1H-indol-5-yl)-benzenesulfonamide] | 40 | 10 | –
12 | CN(C)c1ccc(NS(=O)(=O)c2cccc(-c3ccc(F)c(F)c3)c2)cc1 [Compound 263] | – | – | EC50 (EC50 in cell adhesion assay): 26 µM; Emax: 88%

Further lines, with some results ahead:

Row | Emax (concentration not given) [%] | EC50 [1] [µM] | Structure (SMILES) | also measured
13 | 81 | 36 | Cc1nc2cc(NS(=O)(=O)c3cccc(-c4ccc(F)cc4)c3)ccc2s1 [Compound 188, 4′-fluoro-biphenyl-3-sulfonic acid (2-methyl-benzothiazol-5-yl)-amide] | –
14 | – | 20 | Cc1cc(F)ccc1-c1ccc(S(=O)(=O)Nc2ccc(N(C)C)cc2)s1 [Compound 307] | Emax at 50 µM: 67%
15 | 89 | 31 | COc1ccc(NS(=O)(=O)c2cccc(-c3ccc(F)cc3)c2)cc1 [Compound 250] | –
16 | 86 | 19 | CN(C)c1ccc(NS(=O)(=O)c2cccc(-c3cccc(F)c3)c2)cc1 [Compound 203] | –
17 | 45 | 44 | CN(C)c1ccc(NS(=O)(=O)c2cc(-c3ccc(F)cc3)c(-c3ccc(F)cc3)s2)cc1 [Compound 317] | –
18 | 57 | 26 | CN(C)c1ccc(NS(=O)(=O)c2cccc(-c3cccc(C#N)c3)c2)cc1 [Compound 275] | –
19 | 50 | 45 | O=S(=O)(Nc1ccc(-n2ccnc2)cc1)c1cccc(-c2ccc(F)cc2)c1 [Compound 300] | –
20 | 63 | ~25 | COc1cccc(-c2cccc(S(=O)(=O)Nc3ccc(N(C)C)cc3)c2)c1 [Compound 204] | –
21 | 75 | 39 | CN(C)c1ccc(NS(=O)(=O)c2cc(Br)c(F)cc2F)cc1 [Compound 192, 5-bromo-N-[4-(dimethylamino)phenyl]-2,4-difluoro benzene sulfonamide] | –
22 | 50 | 32 | CC(C)(C)c1cc2cc(NS(=O)(=O)c3cccc(-c4ccc(F)cc4)c3)ccc2[nH]1 [Compound 291] | –
23 | 91 | 19 | O=S(=O)(Nc1ccc2c(c1)OCO2)c1cccc(-c2ccc(F)cc2)c1 [Compound 186, 4′-fluoro-biphenyl-3-sulfonic acid benzo[1,3]dioxol-5-yl-amide] | –
